Assay results reported in ChEMBL document CHEMBL1157764, “Conserved high activity binding peptides are involved in adhesion of two detergent-resistant membrane-associated merozoite proteins to red blood cells during invasion” (J Med Chem, 2010).

Species on record: Homo sapiens
Test: Binding affinity to RBC membrane receptor in human RBCs assessed as specific binding activity measured as ratio of specifically bound peptide/added peptide by gamma counter
In the case of `CC[C@H](C)[C@H](NC(=O)[C@H](CCCCN)NC(=O)[C@H](CCCNC(=N)N)NC(=O)[C@@H]1CCCN1C(=O)[C@@H](NC(=O)[C@@H](NC(=O)[C@H](CCCCN)NC(=O)[C@@H](NC(=O)[C@H](CCCCN)NC(=O)[C@@H](NC(=O)[C@@H](NC(=O)[C@@H](N)Cc1ccc(O)cc1)C(C)C)[C@@H](C)CC)[C@@H](C)CC)[C@@H](C)O)C(C)C)C(=O)N[C@@H](CCC(N)=O)C(=O)N[C@@H](CS)C(=O)N[C@@H](CCC(=O)O)C(=O)N[C@@H](CC(C)C)C(=O)N[C@@H](CC(N)=O)C(=O)N[C@H](C(=O)N[C@@H](CC(N)=O)C(=O)N[C@@H](CC(=O)O)C(=O)O)[C@@H](C)O`, the Activity is reported as > 2%.
For `CC(C)C[C@H](NC(=O)[C@H](CC(N)=O)NC(=O)[C@H](CC(C)C)NC(=O)[C@@H]1CCCN1C(=O)[C@H](CC(N)=O)NC(=O)[C@H](CCCCN)NC(=O)[C@H](Cc1ccc(O)cc1)NC(=O)[C@@H](N)CS)C(=O)N[C@@H](CCCCN)C(=O)N[C@H](C(=O)N[C@@H](CC(C)C)C(=O)N[C@@H](CCC(=O)O)C(=O)N[C@H](C(=O)N[C@@H](CC(C)C)C(=O)N[C@@H](CC(C)C)C(=O)N[C@@H](CCCCN)C(=O)N[C@@H](CCCCN)C(=O)N[C@@H](CC(N)=O)C(=O)N[C@@H](Cc1ccc(O)cc1)C(=O)N[C@@H](Cc1ccc(O)cc1)C(=O)O)C(C)C)C(C)C`, the Activity was > 2%.
H-MFAVNLKICIFLSLVSFLLQY-OH was tested, and the Activity was > 2%.
In the case of `CC[C@H](C)[C@H](NC(=O)[C@H](Cc1ccccc1)NC(=O)[C@H](CC(C)C)NC(=O)[C@H](CC(C)C)NC(=O)[C@H](CC(C)C)NC(=O)[C@H](CC(C)C)NC(=O)[C@@H](NC(=O)[C@@H](NC(=O)[C@H](CC(C)C)NC(=O)[C@H](CC(C)C)NC(=O)[C@H](C)NC(=O)[C@H](CC(N)=O)NC(=O)[C@H](CO)NC(=O)[C@H](CCSC)NC(=O)[C@H](C)NC(=O)[C@H](Cc1ccccc1)NC(=O)[C@@H](N)Cc1ccccc1)C(C)C)[C@@H](C)CC)C(=O)N[C@@H](CCC(=O)O)C(=O)N[C@@H](Cc1ccccc1)C(=O)N[C@@H](CC(C)C)C(=O)N[C@@H](Cc1ccc(O)cc1)C(=O)O`, the Activity is reported as > 2%.
For `CC[C@H](C)[C@H](NC(=O)[C@H](CC(N)=O)NC(=O)[C@@H](NC(=O)[C@H](CC(N)=O)NC(=O)CNC(=O)[C@H](CC(=O)O)NC(=O)[C@H](CCCCN)NC(=O)[C@@H](NC(=O)[C@@H](NC(=O)[C@@H](NC(=O)[C@@H]1CCCN1C(=O)[C@H](CCC(=O)O)NC(=O)[C@H](CCC(=O)O)NC(=O)[C@H](CC(N)=O)NC(=O)[C@@H](N)CCCCN)C(C)C)[C@@H](C)CC)C(C)C)[C@@H](C)CC)C(=O)N[C@@H](CCCCN)C(=O)N[C@@H](CO)C(=O)N[C@@H](C)C(=O)N[C@@H](CC(C)C)C(=O)N[C@@H](CC(C)C)C(=O)N[C@@H](Cc1ccc(O)cc1)C(=O)O`, the Activity was > 2%.
With `CC[C@H](C)[C@H](NC(=O)[C@H](Cc1ccc(O)cc1)NC(=O)[C@H](CCCCN)NC(=O)[C@H](CC(N)=O)NC(=O)[C@@H](N)CCCCN)C(=O)N[C@@H](CO)C(=O)N[C@@H](CC(C)C)C(=O)N[C@@H](Cc1ccc(O)cc1)C(=O)N[C@@H](CC(N)=O)C(=O)N[C@@H](CCCCN)C(=O)N[C@H](C(=O)N[C@@H](CCCCN)C(=O)N[C@H](C(=O)N[C@H](C(=O)N[C@@H](CCSC)C(=O)N1CCC[C@H]1C(=O)N[C@@H](CCC(=O)O)C(=O)N[C@@H](CC(C)C)C(=O)N[C@@H](Cc1ccccc1)C(=O)N[C@@H](CC(=O)O)C(=O)O)[C@@H](C)O)[C@H](C)O)C(C)C` the Activity was > 2%.
For H-DEKHAENEENVEQIETDSNVY-OH, the Activity was > 2%.
With `CC[C@H](C)[C@H](NC(=O)[C@H](CCC(N)=O)NC(=O)CNC(=O)[C@H](C)NC(=O)[C@@H](N)CC(C)C)C(=O)N[C@@H](CC(N)=O)C(=O)NCC(=O)N[C@@H](CC(C)C)C(=O)N[C@@H](CC(N)=O)C(=O)N[C@@H](CC(=O)O)C(=O)N[C@@H](CC(C)C)C(=O)N[C@@H](Cc1ccc(O)cc1)C(=O)NCC(=O)N[C@@H](CCCNC(=N)N)C(=O)N[C@@H](CC(N)=O)C(=O)N[C@@H](CO)C(=O)N[C@@H](CCCCN)C(=O)N[C@@H](CCCCN)C(=O)N[C@H](C(=O)N[C@@H](Cc1ccc(O)cc1)C(=O)O)[C@@H](C)O` the Activity was < 2%.
H-KYILVCENHSQNYINVVDQE-OH was tested, and the Activity was > 2%.
In the case of H-TYHLAIVKNEDKLQLAFTYD-OH, the Activity is reported as > 2%.
